From ChEMBL document CHEMBL1127195, “Screening chemically synthesized peptide libraries for biologically-relevant molecules” (Bioorg Med Chem Lett, 1993)

system: Monoclonal antibody (mAb); test: Binding affinity towards monoclonal antibody (MAb) using ELISA assay, activity expressed relative to WQMGHS=1

How did the Relative activity turn out when CSCC[C@@H](NC(=O)[C@@H](CCC(N)=O)NC(=O)[C@@H](N)Cc1c[nH]c2ccccc12)C(=O)NCC(=O)N[C@@H](Cc1c[nH]cn1)C(=O)N[C@@H](CO)C(=O)O was run?
The Relative activity was 0.75.

How did the Relative activity turn out when CSCC[C@@H](NC(=O)[C@@H](CCC(N)=O)NC(=O)[C@@H](N)Cc1c[nH]c2ccccc12)C(=O)NCC(=O)N[C@H](Cc1c[nH]cn1)C(=O)N[C@@H](CO)C(=O)O was run?
Its Relative activity is 1.58.

Which Relative activity does the source give for CSCC[C@H](NC(=O)[C@@H](CCC(N)=O)NC(=O)[C@@H](N)Cc1c[nH]c2ccccc12)C(=O)NCC(=O)N[C@H](Cc1c[nH]cn1)C(=O)N[C@@H](CO)C(=O)O here?
Its Relative activity is 0.64.

With CSCC[C@@H](NC(=O)[C@H](CCC(N)=O)NC(=O)[C@@H](N)Cc1c[nH]c2ccccc12)C(=O)NCC(=O)N[C@@H](Cc1c[nH]cn1)C(=O)N[C@@H](CO)C(=O)O as the compound, how does the Relative activity read?
Its Relative activity is 1.01.

Which Relative activity does the source give for CSCC[C@@H](NC(=O)[C@@H](CCC(N)=O)NC(=O)[C@H](N)Cc1c[nH]c2ccccc12)C(=O)NCC(=O)N[C@@H](Cc1c[nH]cn1)C(=O)N[C@@H](CO)C(=O)O here?
The Relative activity was 1.89.

CSCC[C@H](NC(=O)[C@@H](CCC(N)=O)NC(=O)[C@H](N)Cc1c[nH]c2ccccc12)C(=O)NCC(=O)N[C@H](Cc1c[nH]cn1)C(=O)N[C@@H](CO)C(=O)O was tested. Which Relative activity did it give?
Its Relative activity is 1.39.

CSCC[C@@H](NC(=O)[C@H](CCC(N)=O)NC(=O)[C@@H](N)Cc1c[nH]c2ccccc12)C(=O)NCC(=O)N[C@H](Cc1c[nH]cn1)C(=O)N[C@H](CO)C(=O)O was tested. Which Relative activity did it give?
Its Relative activity is 0.33.

How did the Relative activity turn out when CSCC[C@H](NC(=O)[C@H](CCC(N)=O)NC(=O)[C@@H](N)Cc1c[nH]c2ccccc12)C(=O)NCC(=O)N[C@@H](Cc1c[nH]cn1)C(=O)N[C@@H](CO)C(=O)O was run?
Its Relative activity is 1.

How did the Relative activity turn out when CSCC[C@@H](NC(=O)[C@@H](CCC(N)=O)NC(=O)[C@@H](N)Cc1c[nH]c2ccccc12)C(=O)NCC(=O)N[C@@H](Cc1c[nH]cn1)C(=O)N[C@H](CO)C(=O)O was run?
The Relative activity was 0.81.

CSCC[C@@H](NC(=O)[C@H](CCC(N)=O)NC(=O)[C@@H](N)Cc1c[nH]c2ccccc12)C(=O)NCC(=O)N[C@@H](Cc1c[nH]cn1)C(=O)N[C@H](CO)C(=O)O was tested. Which Relative activity did it give?
Its Relative activity is 1.17.

How did the Relative activity turn out when CSCC[C@@H](NC(=O)[C@@H](CCC(N)=O)NC(=O)[C@H](N)Cc1c[nH]c2ccccc12)C(=O)NCC(=O)N[C@@H](Cc1c[nH]cn1)C(=O)N[C@H](CO)C(=O)O was run?
Its Relative activity is 0.43.

With CSCC[C@@H](NC(=O)[C@H](CCC(N)=O)NC(=O)[C@H](N)Cc1c[nH]c2ccccc12)C(=O)NCC(=O)N[C@@H](Cc1c[nH]cn1)C(=O)N[C@@H](CO)C(=O)O as the compound, how does the Relative activity read?
The Relative activity was 0.75.

With CSCC[C@H](NC(=O)[C@@H](CCC(N)=O)NC(=O)[C@@H](N)Cc1c[nH]c2ccccc12)C(=O)NCC(=O)N[C@@H](Cc1c[nH]cn1)C(=O)N[C@H](CO)C(=O)O as the compound, how does the Relative activity read?
The Relative activity was 0.86.

For CSCC[C@H](NC(=O)[C@H](CCC(N)=O)NC(=O)[C@H](N)Cc1c[nH]c2ccccc12)C(=O)NCC(=O)N[C@H](Cc1c[nH]cn1)C(=O)N[C@@H](CO)C(=O)O, which Relative activity is on record?
Its Relative activity is 0.78.

CSCC[C@H](NC(=O)[C@@H](CCC(N)=O)NC(=O)[C@@H](N)Cc1c[nH]c2ccccc12)C(=O)NCC(=O)N[C@@H](Cc1c[nH]cn1)C(=O)N[C@@H](CO)C(=O)O was tested. Which Relative activity did it give?
Its Relative activity is 0.82.

With CSCC[C@@H](NC(=O)[C@H](CCC(N)=O)NC(=O)[C@H](N)Cc1c[nH]c2ccccc12)C(=O)NCC(=O)N[C@@H](Cc1c[nH]cn1)C(=O)N[C@H](CO)C(=O)O as the compound, how does the Relative activity read?
The Relative activity was 0.89.

How did the Relative activity turn out when CSCC[C@H](NC(=O)[C@H](CCC(N)=O)NC(=O)[C@@H](N)Cc1c[nH]c2ccccc12)C(=O)NCC(=O)N[C@@H](Cc1c[nH]cn1)C(=O)N[C@H](CO)C(=O)O was run?
Its Relative activity is 0.64.

CSCC[C@H](NC(=O)[C@H](CCC(N)=O)NC(=O)[C@@H](N)Cc1c[nH]c2ccccc12)C(=O)NCC(=O)N[C@H](Cc1c[nH]cn1)C(=O)N[C@H](CO)C(=O)O was tested. Which Relative activity did it give?
The Relative activity was 1.06.

CSCC[C@@H](NC(=O)[C@H](CCC(N)=O)NC(=O)[C@H](N)Cc1c[nH]c2ccccc12)C(=O)NCC(=O)N[C@H](Cc1c[nH]cn1)C(=O)N[C@@H](CO)C(=O)O was tested. Which Relative activity did it give?
The Relative activity was 1.16.

For CSCC[C@H](NC(=O)[C@H](CCC(N)=O)NC(=O)[C@H](N)Cc1c[nH]c2ccccc12)C(=O)NCC(=O)N[C@@H](Cc1c[nH]cn1)C(=O)N[C@H](CO)C(=O)O, which Relative activity is on record?
The Relative activity was 0.83.

How did the Relative activity turn out when CSCC[C@H](NC(=O)[C@H](CCC(N)=O)NC(=O)[C@H](N)Cc1c[nH]c2ccccc12)C(=O)NCC(=O)N[C@H](Cc1c[nH]cn1)C(=O)N[C@H](CO)C(=O)O was run?
Its Relative activity is 1.

With CSCC[C@@H](NC(=O)[C@@H](CCC(N)=O)NC(=O)[C@@H](N)Cc1c[nH]c2ccccc12)C(=O)NCC(=O)N[C@H](Cc1c[nH]cn1)C(=O)N[C@H](CO)C(=O)O as the compound, how does the Relative activity read?
Its Relative activity is 0.36.

CSCC[C@@H](NC(=O)[C@H](CCC(N)=O)NC(=O)[C@@H](N)Cc1c[nH]c2ccccc12)C(=O)NCC(=O)N[C@H](Cc1c[nH]cn1)C(=O)N[C@@H](CO)C(=O)O was tested. Which Relative activity did it give?
The Relative activity was 1.31.

With CSCC[C@H](NC(=O)[C@H](CCC(N)=O)NC(=O)[C@H](N)Cc1c[nH]c2ccccc12)C(=O)NCC(=O)N[C@@H](Cc1c[nH]cn1)C(=O)N[C@@H](CO)C(=O)O as the compound, how does the Relative activity read?
The Relative activity was 1.33.

For CSCC[C@@H](NC(=O)[C@@H](CCC(N)=O)NC(=O)[C@H](N)Cc1c[nH]c2ccccc12)C(=O)NCC(=O)N[C@H](Cc1c[nH]cn1)C(=O)N[C@H](CO)C(=O)O, which Relative activity is on record?
Its Relative activity is 0.44.

For CSCC[C@H](NC(=O)[C@@H](CCC(N)=O)NC(=O)[C@H](N)Cc1c[nH]c2ccccc12)C(=O)NCC(=O)N[C@@H](Cc1c[nH]cn1)C(=O)N[C@@H](CO)C(=O)O, which Relative activity is on record?
Its Relative activity is 0.6.

Which Relative activity does the source give for CSCC[C@H](NC(=O)[C@H](CCC(N)=O)NC(=O)[C@@H](N)Cc1c[nH]c2ccccc12)C(=O)NCC(=O)N[C@H](Cc1c[nH]cn1)C(=O)N[C@@H](CO)C(=O)O here?
Its Relative activity is 0.85.

CSCC[C@H](NC(=O)[C@@H](CCC(N)=O)NC(=O)[C@H](N)Cc1c[nH]c2ccccc12)C(=O)NCC(=O)N[C@@H](Cc1c[nH]cn1)C(=O)N[C@H](CO)C(=O)O was tested. Which Relative activity did it give?
The Relative activity was 0.88.

With CSCC[C@@H](NC(=O)[C@@H](CCC(N)=O)NC(=O)[C@H](N)Cc1c[nH]c2ccccc12)C(=O)NCC(=O)N[C@H](Cc1c[nH]cn1)C(=O)N[C@@H](CO)C(=O)O as the compound, how does the Relative activity read?
Its Relative activity is 0.9.
